Consider 2 compounds from article PMC8510290, “Fishing of α-Glucosidase’s Ligands from Aloe vera by α-Glucosidase Functionalized Magnetic Nanoparticles” (Molecules, 2021).

The target in the assay is T1, α-glucosidase (Saccharomyces cerevisiae, UniProt P53341).
T1 construct: gene MAL12
In words: p-NPG hydrolysis assay (activation, maximal effect ratio) with purified enzyme; also fished out by enzyme-immobilized magnetic nanoparticles. It counts as biochemical.

T1 sequence (P53341 whole entry): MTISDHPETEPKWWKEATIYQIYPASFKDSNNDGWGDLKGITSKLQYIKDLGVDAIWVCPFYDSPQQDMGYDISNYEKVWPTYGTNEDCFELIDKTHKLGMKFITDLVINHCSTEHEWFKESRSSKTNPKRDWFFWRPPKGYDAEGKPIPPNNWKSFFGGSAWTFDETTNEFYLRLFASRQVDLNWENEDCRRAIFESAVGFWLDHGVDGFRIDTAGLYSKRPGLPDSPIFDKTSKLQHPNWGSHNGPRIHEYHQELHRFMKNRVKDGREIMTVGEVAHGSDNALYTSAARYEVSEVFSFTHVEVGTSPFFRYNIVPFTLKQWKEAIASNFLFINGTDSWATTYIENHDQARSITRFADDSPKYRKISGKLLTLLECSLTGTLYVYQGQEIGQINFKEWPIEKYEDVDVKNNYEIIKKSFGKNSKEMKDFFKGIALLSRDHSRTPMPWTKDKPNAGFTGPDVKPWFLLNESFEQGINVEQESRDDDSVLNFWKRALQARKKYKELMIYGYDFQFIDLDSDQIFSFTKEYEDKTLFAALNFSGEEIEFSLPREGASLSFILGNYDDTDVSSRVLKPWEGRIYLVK

For `COc1cc(-c2c(C)cc(O)cc2O)oc(=O)c1` [compound 1, aloenin aglycone], the Emax came out at 26.4 ± 0.8%.

As to `CC(=O)c1c(C[C@@H]2Cc3cc(O)cc(O)c3C(=O)O2)cc(O)cc1O[C@@H]1O[C@H](CO)[C@@H](O)[C@H](OC(=O)/C=C/c2ccc(O)cc2)[C@H]1O` [compound 2, aloeacone], the Emax stood at 17.8 ± 0.3%.

One may read the Emax as the maximal effect, on the per cent scale that the assay sets.
